{"source": "patent US5633274A", "about": "“Cancer treatments” (President and Fellows of Harvard College, priority 1993, dated 1997)", "key": {"nonprostate cancer cells": {"tested_on": "nonprostate cancer cells", "assay": "Proliferation of nonprostate cancer cells (general statements)", "assay_type": "cell-based", "details": "for inhibition of (nonprostate cancer) cell proliferation: other channel and transport inhibitors"}, "[1]": {"tested_on": "human lung adenocarcinoma cells", "assay": "DNA synthesis ([3H]thymidine incorporation) in human lung adenocarcinoma cells", "assay_type": "cell-based", "details": "FIG. 1", "experimental": "(§1) The inhibitory effect of clotrimazol (CLT) on cell proliferation was assessed in cancerous cells. Quiescent human colon adenocarcinoma and human lung adenocarcinoma cells were stimulated with 5% fetal calf serum and synthesis of DNA was assessed by the incorporation of [3H]thymidine measures 24 hours later. […] The effect was not due to a toxic, non-specific, effect because it was reversed by removing CLT and re-stimulating the cells with 5% fetal calf serum (FIG. 1)."}, "[2]": {"molecular_target": "T1, Ca++ activated K channel of human erythrocytes (Homo sapiens, UniProt O15554)", "T1 construct": "Preparation of Human Red Blood Cells: Blood is collected in heparinized tubes; endogenous in cells; host or cells: washed human erythrocytes (red blood cells) from heparinized blood", "assay": "Inhibition of Ca++ activated K channel of human erythrocytes (86Rb influx, K efflux)", "assay_type": "cell-based", "experimental": "Preparation of Human Red Blood Cells: Blood is collected in heparinized tubes and centrifuged in a Sorvall centrifuge (RB 5B, Du Pont Instruments,Newtown, Conn.) at 5° C. for 10 minutes at 3000 g. Plasma and buffy coat are carefully removed and the cells washed four times with a washing solution containing 150 mM choline chloride (Sigma Co), 1 mM MgC12 (Sigma Co), 10 mM Tris-MOPS (Sigma, Ca), pH 7.4 at 4° C.(CWS). An aliquot of cells is then suspended in an approximately equal volume of CWS, and from this original cell suspension hematocrit (Hct) and hemoglobin (optical density at 540 nm) are determined.\nMethods to Test Inhibitors of the Ca^++ Activated K: To test inhibitors of the Ca^++ activated K channel, the channel is activated using the calcium ionophore A23187 (Chalbiochem).\nBy Atomic Absorption Spectrometry: Washed human erythrocyte are suspended at an hematocrit≈1% in CWS containing 0.150 mM CaCl2 (Sigma Co) Aliquots of 1 ml are removed at 0, 3 and 5 minutes, layered on top of 0.3 ml of the oil n-butyl phthalate (Fair Lane, N.J.) placed in an Eppendorf microtube (Fisher) and then centrifuged in a micro centrifuge for 20 seconds. At time 5.30 minutes, ionophore A23187 (1 μM final concentration) is added and samples removed and spin down through phthalate at times 6, 7, 8 and 9 minutes. The supernatant on top of the oil layer is removed and its K+ concentration is measured by atomic absorption spectrometry using a Perking Elmer model 5000 spectrometer (Perkin Elmer Corp., Norwolk, Conn.). The efflux of K+ (mmol/l cells/h) in the absence and presence of the inhibitor is calculated from the slope of the curves relating the K+ concentration in the supernatants (mmol/l cells) vs. time (min.).\nBy radioisotopic measurement of ^86 Rb influx. The incubation medium is the same but contains 2 mM KCl and 1 μCi/ml of the radioactive tracer ^86 Rb. After spinning the samples through the phthalate layer, the tubes are rapidly frozen (-80° C.) by immersion in methanol-dry ice, the tips of the tubes containing the packed red cells cut, and counted in a Packard Gamma Counter.\nThe inhibitory effect of (CLT) on the Ca^++ activated K channel of human erythrocytes was assessed in the presence of 60 μmol A23187/L cell and 100 μMCaCl2.\nOther antimycotics were tested for their inhibition of the Ca++ activated 86Rb influx human erythrocytes."}, "adenocarcinomas in rats": {"tested_on": "adenocarcinomas in rats", "assay": "Inhibition of tumor growth in vivo (adenocarcinomas in rats)", "design": "species or system rat", "experimental": "The efficacy of CLT was studied in inhibiting the growth of adenocarcinomas in rats. […] Tumors were measured by size and weight on a daily basis, and growth rates were calculated. Nonparametric statistical comparisons were made among the median growth rates of all of the treatment groups."}, "[3]": {"tested_on": "rat vascular smooth muscle cells", "procedure": "(§4) DNA synthesis assessed by the uptake of [3H]thymidine: Cells are grown in either 48 or 96 wells plates (Costar, Cambridge, Mass.) at 10^4 and 0.8 10^3 cells per well, respectively, and grown in Dubelcco's modified Eagle's medium (DME, Gibco, Grand Island, N.Y.) supplemented with 10% heat-inactivated calf serum; they are kept at 37° C. in 5% CO2. When they reach confluence, usually between 3 and 4 days, the medium is replaced with DME 0.5% serum to make them quiescent, and mitogenesis assays are performed 24 hours later.\n(§5) Quiescent cells are exposed to a mitogenic stimulus, such as 10% serum, PDGF (Sigma Co. St. Louis, Mo.), bFGF (Upstate Biotechnologies, Lake Placid, N.Y.), or other appropriate mitogen according to the cell line, and 3 hours later 1 μCi/ml of [3H]thymidine (Dupont, Billerica, Mass.) is added to the wells, and the cells maintained at 37° C./5% CO2 for additional 21 hours. Then the cells are washed 3 times with DME medium and the acid-precipitable radioactivity is extracted with cold 10% TCA (Sigma, Co). After neutralization with 0.3N NaOH (Sigma Co.), aliquots are counted in a Packard Tri-Carb Scintillation counter (Packard Instrument, Downer's Grove, Ill.).\nCells were stimulated using 5 μM bFGF."}, "[4]": {"tested_on": "human colon adenocarcinoma cells", "assay": "DNA synthesis ([3H]thymidine incorporation) in human colon adenocarcinoma cells", "assay_type": "cell-based", "details": "FIG. 1", "experimental": "as §1"}, "[5]": {"tested_on": "Primary human sarcomas rabdomyosarcoma", "assay": "Cell growth of primary human rabdomyosarcoma (surface covered by monolayer)", "assay_type": "cell-based", "details": "10 μM CLT; 48 hours", "experimental": "(§2) Measurement of cell density in culture plates: Cells of a specific test cell line are seeded at precisely the same low density in culture plates and incubated for approximately 12 hours in DME 10% serum, or other culture medium depending on the cell line tested. […] Alternatively, the cells can be detached from the plate by incubation with trypsin (Sigma, Co.) […] in ethylene diaminotetraacetic acid (ECTA; Sigma, Co); then the cells are counted in an hemocytometer chamber (Fisher, Pittsburgh, Pa.).\n(§3) Primary human sarcomas rabdomyosarcoma and liposarcoma: Fresh human cancer specimens were obtained from human subjects undergoing a surgical procedure; the tumors were treated with colagenase to dissociate the cells which were then seeded at low density (1×10^5 in small culture chambers containing hybridomas grade culture medium supplemented with 5% fetal calf serum; after 12 hrs., when the cells were attached to the surface of the culture chambers, CLT (10 μM) or carrier (ethanol) were added *triplicate chambers). After 48 hours cell growth was assessed by optic miscroscopy calculating the surface of the culture flask covered by the cell monolayer."}, "[6]": {"tested_on": "Primary human sarcomas liposarcoma", "assay": "Cell growth of primary human liposarcoma (surface covered by monolayer)", "assay_type": "cell-based", "details": "10 μM CLT; 48 hours", "experimental": "as §2, §3"}, "[7]": {"tested_on": "rat vascular smooth muscle cells", "assay": "cells", "details": "read-out: inhibition of DNA synthesis", "procedure": "as §4, §5\nCells were stimulated using 5 μM bFGF."}, "[8]": {"tested_on": "primary human sarcoma cells", "assay": "bFGF-stimulated DNA synthesis in primary human sarcoma cells", "assay_type": "cell-based", "details": "for inhibition of DNA synthesis by other inhibitors of the Ca++ activated K channel: toxins, concentration not given", "experimental": "as §3\nOther antimycotics were tested for their inhibition of bFGF-stimulated DNA synthesis in the primary human sarcoma cells of Example 3."}, "17-20 desmolase": {"tested_on": "17-20 desmolase", "details": "background; cited from earlier work"}, "[9]": {"tested_on": "testicular and adrenal synthesis of steroid hormones, including testosterone", "details": "cited from earlier work"}, "[10]": {"tested_on": "21- and/or 11-hydroxylase", "details": "background; cited from earlier work"}, "17-hydroxylase": {"tested_on": "17-hydroxylase", "details": "background; cited from earlier work"}, "[11]": {"details": "10 μM CLT, 5% fetal calf serum stimulation, 24 hours"}, "[12]": {"details": "re-stimulated with 5% fetal calf serum"}, "[13]": {"details": "60 μmol A23187/L cell and 100 μM CaCl2"}, "[14]": {"details": "other antimycotics, human erythrocytes, FIG. 4"}}, "note": "Entries after “also recorded” stand apart in the source; their conditions may differ. Like-named read-outs stand apart in the source and are kept apart here."}
{"compound": "N=C(N)NC(=O)c1nc(Cl)c(N)nc1N", "note": "[amiloride]", "values": [{"measurement": "inhibition of (nonprostate cancer) cell proliferation", "setting": "nonprostate cancer cells", "result": "do not inhibit cell proliferation"}]}
{"compound": "Clc1ccccc1C(c1ccccc1)(c1ccccc1)n1ccnc1", "note": "[clotrimazole]", "values": [{"measurement": "inhibition of DNA synthesis", "setting": "[1]; [11]", "result": "completely inhibited"}, {"measurement": "reversibility of effect on removing CLT and re-stimulating (not due to a toxic, non-specific effect)", "setting": "[1]; [12]", "result": "reversed"}, {"measurement": "inhibition of Ca++ activated 86Rb influx", "setting": "[2]; [13]", "result": "markedly inhibited"}, {"measurement": "inhibition of K efflux", "setting": "[2]; [13]", "result": "markedly inhibited"}, {"measurement": "order of inhibitory potency (Ca++ activated 86Rb influx)", "setting": "[2]; human erythrocytes, FIG. 4", "result": "clotrimazole more than miconazole"}, {"measurement": "median tumor growth rate", "setting": "adenocarcinomas in rats; 100 mg/kg by mouth in peanut oil", "result": "significant reduction"}, {"measurement": "median tumor growth rate", "setting": "adenocarcinomas in rats; 200 mg/kg by mouth in peanut oil", "result": "significant reduction"}, {"measurement": "dose dependence of inhibition of DNA synthesis", "setting": "[3]; 0.001 μM, 0.1 μM, 1 μM and 10 μM", "result": "dose dependent"}, {"measurement": "inhibition of DNA synthesis", "setting": "[3]; 10 μM, bFGF stimulation", "result": "complete inhibition"}, {"measurement": "inhibition of DNA synthesis", "setting": "[4]; [11]", "result": "completely inhibited"}, {"measurement": "reversibility of effect on removing CLT and re-stimulating (not due to a toxic, non-specific effect)", "setting": "[4]; [12]", "result": "reversed"}, {"measurement": "growth of sarcoma cells", "setting": "[5]", "result": "completely arrested"}, {"measurement": "inhibition of growth", "setting": "[5]", "result": "More than 95%"}, {"measurement": "growth of sarcoma cells", "setting": "[6]", "result": "completely arrested"}, {"measurement": "inhibition of growth", "setting": "[6]", "result": "More than 95%"}, {"measurement": "inhibition at 1 µM", "setting": "[7]", "result": 45, "unit": "%"}, {"measurement": "order of inhibitory potency (DNA synthesis)", "setting": "[8]", "result": "CLT more potent than ECZ"}, {"measurement": "inhibition of bFGF-stimulated DNA synthesis", "setting": "[8]; 10 µM", "result": "inhibited DNA synthesis"}]}
{"compound": "Clc1ccc(COC(Cn2ccnc2)c2ccc(Cl)cc2Cl)cc1", "note": "(stereo not shown) [econazole]", "values": [{"measurement": "order of inhibitory potency (Ca++ activated 86Rb influx)", "setting": "[2]; human erythrocytes, FIG. 4", "result": "both of these were more than econazole"}, {"measurement": "inhibition of bFGF-stimulated DNA synthesis", "setting": "[8]; 10 μM, FIG. 3", "result": "inhibited DNA synthesis"}, {"measurement": "order of inhibitory potency (DNA synthesis)", "setting": "[8]; 10 μM, FIG. 3", "result": "ECZ more potent than MCZ"}]}
{"compound": "OC(Cn1cncn1)(Cn1cncn1)c1ccc(F)cc1F", "note": "[fluconazole]", "values": [{"measurement": "inhibition of Ca++ activated 86Rb influx", "setting": "[2]; [14]", "result": "no inhibition"}]}
{"compound": "CC(=O)N1CCN(c2ccc(OCC3COC(Cn4ccnc4)(c4ccc(Cl)cc4Cl)O3)cc2)CC1", "note": "(stereo not shown) [ketoconazole]", "values": [{"measurement": "inhibition of 17-20 desmolase", "setting": "17-20 desmolase", "result": "inhibition"}, {"measurement": "inhibition of testicular and adrenal synthesis of steroid hormones, including testosterone", "setting": "[9]; in high doses", "result": "inhibits testicular and adrenal synthesis of steroid hormones, including testosterone"}, {"measurement": "plasma testosterone", "setting": "[9]; prostate cancer treatment", "result": "reduces plasma testosterone to castration levels"}, {"measurement": "inhibition of growth/proliferation of nonprostate cancer cells", "setting": "nonprostate cancer cells; nonprostate cancer cells tested by the applicants", "result": "ineffective; also recorded: not useful for inhibiting proliferation"}, {"measurement": "inhibition of 21- and/or 11-hydroxylase", "setting": "[10]", "result": "marked inhibition"}, {"measurement": "blockade of 17-hydroxylase", "setting": "17-hydroxylase", "result": "partial blockade"}]}
{"compound": "Cc1ncc([N+](=O)[O-])n1CCO", "note": "[metronidazole]", "values": [{"measurement": "inhibition of Ca++ activated 86Rb influx", "setting": "[2]; [14]", "result": "only marginal"}]}
{"compound": "Clc1ccc(COC(Cn2ccnc2)c2ccc(Cl)cc2Cl)c(Cl)c1", "note": "(stereo not shown) [miconazole]", "values": [{"measurement": "order of inhibitory potency (Ca++ activated 86Rb influx)", "setting": "[2]; human erythrocytes, FIG. 4", "result": "clotrimazole more than miconazole; and both of these were more than econazole"}, {"measurement": "inhibition of bFGF-stimulated DNA synthesis", "setting": "[8]; 10 μM, FIG. 3", "result": "inhibited DNA synthesis"}, {"measurement": "order of inhibitory potency (DNA synthesis)", "setting": "[8]; 10 μM, FIG. 3", "result": "ECZ more potent than MCZ"}]}
{"compound": "Cc1ncc([N+](=O)[O-])n1CC(O)CCl", "note": "(stereo not shown) [ornidazole]", "values": [{"measurement": "inhibition of Ca++ activated 86Rb influx", "setting": "[2]; [14]", "result": "no inhibition"}]}
{"compound": "C[C@@H]1O[C@@H](O[C@H]2C[C@@H](O)[C@]3(CO)[C@H]4[C@H](O)C[C@]5(C)[C@@H](C6=CC(=O)OC6)CC[C@]5(O)[C@@H]4CC[C@]3(O)C2)[C@H](O)[C@H](O)[C@H]1O", "note": "[ouabain]", "values": [{"measurement": "inhibition of (nonprostate cancer) cell proliferation", "setting": "nonprostate cancer cells", "result": "do not inhibit cell proliferation"}]}
{"compound": "CCS(=O)(=O)CCn1c([N+](=O)[O-])cnc1C", "note": "[tinidazole]", "values": [{"measurement": "inhibition of Ca++ activated 86Rb influx", "setting": "[2]; [14]", "result": "no inhibition"}]}
{"compound": "charybdotoxin", "values": [{"measurement": "inhibition of (nonprostate cancer) cell proliferation", "setting": "nonprostate cancer cells", "result": "do not inhibit proliferation"}, {"measurement": "inhibition of DNA synthesis by other inhibitors of the Ca++ activated K channel", "setting": "[8]", "result": "failed to inhibit DNA synthesis"}]}
{"compound": "kaliotoxin: specific inhibitor of the Ca++ activated potassium channel", "values": [{"measurement": "inhibition of (nonprostate cancer) cell proliferation", "setting": "nonprostate cancer cells", "result": "do not inhibit proliferation"}, {"measurement": "inhibition of DNA synthesis by other inhibitors of the Ca++ activated K channel", "setting": "[8]", "result": "failed to inhibit DNA synthesis"}]}
